Results published in ChEMBL document CHEMBL4184156, “Repurposing Hsp90 inhibitors as antibiotics targeting histidine kinases” (Bioorg Med Chem Lett, 2017).
In brackets after ≈: the same amount, converted by molar mass. Activity calls are given as the source filed them. The calls are words filed in the database; no cut-off is given here.

Assays:
[1] = biological target: T1, Sensor protein kinase WalK family protein (Streptococcus pneumoniae PCS8203, UniProt A0A0H2UQD0); assay: Inhibition of Streptococcus pneumoniae VicK preincubated for 30 mins followed by [gamma-33P]ATP addition after 30 mins by SDS-PAGE method
T1 sequence (A0A0H2UQD0 whole entry): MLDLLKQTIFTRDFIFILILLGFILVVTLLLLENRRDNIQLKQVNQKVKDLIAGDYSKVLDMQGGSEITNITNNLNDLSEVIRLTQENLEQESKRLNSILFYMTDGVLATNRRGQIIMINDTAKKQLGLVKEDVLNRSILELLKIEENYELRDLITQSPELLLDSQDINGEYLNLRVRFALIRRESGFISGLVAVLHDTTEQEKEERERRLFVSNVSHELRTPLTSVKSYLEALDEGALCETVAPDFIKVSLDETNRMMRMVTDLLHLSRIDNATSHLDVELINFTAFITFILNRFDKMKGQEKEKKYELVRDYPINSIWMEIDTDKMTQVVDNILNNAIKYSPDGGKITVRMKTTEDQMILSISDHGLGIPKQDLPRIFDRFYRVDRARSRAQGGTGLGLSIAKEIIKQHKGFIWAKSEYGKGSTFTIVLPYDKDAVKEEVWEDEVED

Bacillus subtilis [2] = assay: Antimicrobial activity against Bacillus subtilis 3610 after 20 hrs by Mueller-Hinton Broth microdilution method; type: functional; details: subsp. subtilis str. NCIB 3610, 20 h
Escherichia coli [3] = assay: Antimicrobial activity against Escherichia coli DC2 after 20 hrs by Mueller-Hinton Broth microdilution method; type: functional; details: DC2, 20 h
[4] = Hemolytic activity against sheep RBC at 0.5 mM after 30 mins relative to control; type: ADME, cell-based, Ovis aries, Erythrocyte; details: sheep red blood cells (erythrocytes), read-out: Activity
[5] = biological target: Cell cycle histidine kinase CckA (Caulobacter vibrioides, UniProt Q9X688); assay: Inhibition of recombinant Caulobacter vibrioides cell cycle histidine kinase CckA deltaTM mutant DHp domain (70 to 691 residues) expressed in Escherichia coli in presence of varying levels of ATP measured every 60 secs for 2 hrs by PK/LDH enzyme coupled assay
[6] = biological target: T2, Virulence sensor histidine kinase PhoQ (Salmonella typhimurium (strain LT2 / SGSC1412 / ATCC 700720)) (UniProt P0DM80); assay: (§1) Inhibition of recombinant Salmonella typhimurium N-terminal His6-SUMO-tagged DHp-catalytic domain PhoQ (257 to 487 residues) autophosphorylation expressed in Escherichia coli BL21(DE3) at 500 uM preincubated for 10 mins followed by [gamma-32P]-ATP addition after 30 mins by phosphotransferase dot blot assay relative to control; parameters: scale not given: the % may be the effect or the level left; details: Salmonella enterica subsp. enterica serovar Typhimurium
T2 sequence (whole entry): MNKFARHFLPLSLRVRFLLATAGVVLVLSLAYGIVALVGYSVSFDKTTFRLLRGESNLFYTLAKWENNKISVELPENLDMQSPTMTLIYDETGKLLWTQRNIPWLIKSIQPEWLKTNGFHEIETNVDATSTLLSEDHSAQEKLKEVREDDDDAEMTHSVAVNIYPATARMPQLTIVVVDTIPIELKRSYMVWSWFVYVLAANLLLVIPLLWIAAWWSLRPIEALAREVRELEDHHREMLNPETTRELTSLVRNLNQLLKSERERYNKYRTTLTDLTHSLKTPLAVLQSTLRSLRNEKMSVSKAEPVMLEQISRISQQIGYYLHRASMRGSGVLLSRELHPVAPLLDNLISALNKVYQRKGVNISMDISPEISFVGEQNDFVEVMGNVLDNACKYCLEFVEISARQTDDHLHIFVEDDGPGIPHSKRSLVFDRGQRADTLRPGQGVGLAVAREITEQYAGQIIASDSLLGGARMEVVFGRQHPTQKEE

[7] = biological target: T3, Histidine protein kinase DivJ (Caulobacter vibrioides (strain ATCC 19089 / CB15) (Caulobactercrescentus)) (UniProt Q03228); assay: as §1, with “Caulobacter vibrioides” for “Salmonella typhimurium”, “His6-tagged” for “His6-SUMO-tagged”, “DivJ (188” for “PhoQ (257”, “585” for “487”, “15” for “30”; parameters: scale not given: the % may be the effect or the level left
T3 sequence (whole entry): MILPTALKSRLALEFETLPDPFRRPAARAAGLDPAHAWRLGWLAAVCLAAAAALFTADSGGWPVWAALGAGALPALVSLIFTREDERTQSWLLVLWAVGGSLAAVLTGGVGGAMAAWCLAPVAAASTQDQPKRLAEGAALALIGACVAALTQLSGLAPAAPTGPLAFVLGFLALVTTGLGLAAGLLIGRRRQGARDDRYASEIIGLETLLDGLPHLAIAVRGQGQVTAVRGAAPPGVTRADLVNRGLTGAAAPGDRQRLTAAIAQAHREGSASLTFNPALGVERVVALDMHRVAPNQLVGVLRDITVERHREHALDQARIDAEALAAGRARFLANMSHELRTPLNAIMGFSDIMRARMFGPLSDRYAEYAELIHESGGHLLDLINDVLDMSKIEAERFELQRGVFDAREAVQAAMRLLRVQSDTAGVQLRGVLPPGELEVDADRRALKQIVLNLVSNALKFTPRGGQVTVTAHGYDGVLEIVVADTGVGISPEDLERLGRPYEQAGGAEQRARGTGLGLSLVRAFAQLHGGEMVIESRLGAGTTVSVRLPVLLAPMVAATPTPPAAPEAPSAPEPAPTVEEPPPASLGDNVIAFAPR

Escherichia coli [8] = assay: Antibacterial activity against Escherichia coli DC2 after 24 hrs by broth dilution method; type: functional; details: DC2, 24 h
Bacillus subtilis [9] = assay: Antibacterial activity against Bacillus subtilis YB886 after 24 hrs by broth dilution method; type: functional; details: YB886, 24 h
Caulobacter vibrioides = assay: Antibacterial activity against Caulobacter crescentus NA1000 after 24 hrs by broth dilution method; type: functional; details: NA1000, 24 h
[10] = biological target: T4, Cell cycle histidine kinase CckA (Caulobacter vibrioides) (UniProt Q9X688); assay: Binding affinity to recombinant Caulobacter vibrioides cell cycle histidine kinase CckA delta 3 mutant DHp domain (190 to 562 residues) expressed in Escherichia coli assessed as change in metlting temperature at 30 uM after 2 mins by SYPRO orange dye based DSF assay
T4 sequence (whole entry): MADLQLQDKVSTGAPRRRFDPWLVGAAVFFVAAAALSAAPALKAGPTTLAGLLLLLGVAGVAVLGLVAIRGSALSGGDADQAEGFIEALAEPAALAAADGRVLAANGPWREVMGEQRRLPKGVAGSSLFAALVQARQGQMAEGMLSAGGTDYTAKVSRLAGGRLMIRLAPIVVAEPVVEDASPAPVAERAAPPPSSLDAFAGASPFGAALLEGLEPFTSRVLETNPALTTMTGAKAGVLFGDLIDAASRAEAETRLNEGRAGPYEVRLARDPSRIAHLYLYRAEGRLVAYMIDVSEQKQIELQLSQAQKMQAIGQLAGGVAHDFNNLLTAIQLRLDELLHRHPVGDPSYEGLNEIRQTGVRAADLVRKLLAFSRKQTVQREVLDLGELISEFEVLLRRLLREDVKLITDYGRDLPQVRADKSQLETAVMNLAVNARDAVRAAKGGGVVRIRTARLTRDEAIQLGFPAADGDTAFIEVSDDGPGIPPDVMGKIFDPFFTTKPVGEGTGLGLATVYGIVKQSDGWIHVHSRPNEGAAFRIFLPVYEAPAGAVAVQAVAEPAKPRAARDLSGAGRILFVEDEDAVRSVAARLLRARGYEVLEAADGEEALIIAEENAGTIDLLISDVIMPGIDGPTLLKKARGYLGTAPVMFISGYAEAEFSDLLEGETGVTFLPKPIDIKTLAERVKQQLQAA

[11] = biological target: T2, Virulence sensor histidine kinase PhoQ (Salmonella typhimurium (strain LT2 / SGSC1412 / ATCC 700720)); assay: as §1, with “BL21 (DE3)” for “BL21(DE3)”, “800” for “500”; parameters: scale not given: the % may be the effect or the level left; details: Salmonella enterica subsp. enterica serovar Typhimurium
[12] = biological target: T2, Virulence sensor histidine kinase PhoQ (Salmonella typhimurium (strain LT2 / SGSC1412 / ATCC 700720)); assay: Inhibition of recombinant Salmonella typhimurium N-terminal His6-SUMO-tagged PhoQ (257 to 487 residues) expressed in Escherichia coli BL21 (DE3) assessed as enzyme aggregation at 400 uM after 30 mins by native-PAGE analysis; details: Salmonella enterica subsp. enterica serovar Typhimurium
[13] = biological target: T5, Virulence sensor histidine kinase PhoQ (Salmonella typhimurium (strain LT2 / SGSC1412 / ATCC 700720), UniProt P0DM80); assay: Inhibition of recombinant Salmonella typhimurium N-terminal His6-SUMO-tagged DHp-catalytic domain PhoQ (257 to 487 residues) autophosphorylation expressed in Escherichia coli BL21 (DE3) preincubated for 10 mins followed by [gamma-32P]-ATP addition after 30 mins by phosphotransferase dot blot assay; parameters: species or system Salmonella enterica subsp. enterica serovar Typhimurium
T5 sequence (P0DM80 whole entry): T2 sequence (whole entry)

[14] = biological target: T4, Cell cycle histidine kinase CckA (Caulobacter vibrioides); assay: Inhibition of recombinant Caulobacter vibrioides cell cycle histidine kinase CckA deltaTM mutant DHp domain (70 to 691 residues) expressed in Escherichia coli at 250 uM in presence of varying levels of ATP measured every 60 secs for 2 hrs by PK/LDH enzyme coupled assay relative to control

| SMILES | IC50 [1] | MIC (Bacillus subtilis [2]) | MIC (Escherichia coli [3]) | hemolysis at 0.5 h, 500 µM [4] | IC50 [5] | Activity [6] | Activity [7] | MIC (Escherichia coli [8]) | MIC (Bacillus subtilis [9]) | MIC (Caulobacter vibrioides) | ΔTm [10] | Activity [11] | inhibition [12] | IC50 [13] | inhibition [14] |
| --- | --- | --- | --- | --- | --- | --- | --- | --- | --- | --- | --- | --- | --- | --- | --- |
| Nc1nc2ccc(Oc3ccc4nc(N)sc4c3)cc2s1 | 75 µM | 49 to 64 µg/mL (≈ 156 to 204 µM) | 32 to 64 µg/mL (≈ 102 to 204 µM) |  |  |  |  |  |  |  |  |  |  |  |  |
| Oc1cc(O)c(-c2n[nH]cc2-c2ccc3c(c2)OCCO3)cc1Cl |  |  |  | 1% | 32.3 to 44 µM |  |  |  |  |  |  |  |  |  |  |
| Cc1n[nH]c(-c2cc(Cl)c(O)cc2O)c1-c1ccccc1 |  |  |  |  |  | 45% | 115% | 37.5 to 75 µM (≈ 11.3 to 22.6 µg/mL) | 150 µM (≈ 45.1 µg/mL) | 225 µM (≈ 67.7 µg/mL) | 4.5 °C |  |  |  |  |
| Oc1cc(O)c(-c2[nH]ncc2-c2ccc3c(c2)OCCO3)cc1Cl |  |  |  |  |  | 63% | 117% | 37.5 to 75 µM (≈ 12.9 to 25.9 µg/mL) | 112 to 225 µM (≈ 38.8 to 77.6 µg/mL) | 150 to 225 µM (≈ 51.7 to 77.6 µg/mL) | 3.3 °C | 48% | inactive |  |  |
| Cc1[nH]nc(-c2cc(Cl)c(O)cc2O)c1-c1ccc2c(c1)OCCO2 |  |  |  | 2% | 11.2 to 28 µM | 35% | 113% | 75 µM (≈ 26.9 µg/mL) | 112 to 150 µM (≈ 40.4 to 53.8 µg/mL) | 225 µM (≈ 80.7 µg/mL) | 5.3 °C |  | inactive | 270 µM |  |
| CN(C)c1cc2c(cc1Sc1nc3c(N)nccc3n1CCNCC(C)(C)C)OCO2 [CUDC-305] |  |  |  | 3% |  | 110% | 96% | 4.7 to 75 µM (≈ 2.08 to 33.2 µg/mL) | > 300 µM | > 300 µM | 0.4 °C |  |  |  | 79% |
| CC(C)NCCCn1c(Sc2cc3c(cc2I)OCO3)nc2c(N)ncnc21 [PU-H71] |  |  |  | 1% |  | 103% | 122% | 75 to 225 µM (≈ 38.4 to 115 µg/mL) | > 300 µM | > 300 µM | 0.5 °C |  |  |  | 61% |
| COc1ccc(-c2c(-c3ccc(O)cc3O)n[nH]c2C)cc1 |  |  |  | 2% | 46 µM | 76% | 117% | 75 to 150 µM (≈ 22.2 to 44.4 µg/mL) | > 300 µM | > 300 µM | 2.5 °C |  |  |  |  |
| Nc1ncnc2c1ncn2[C@@H]1O[C@H](COP(=O)(O)OP(=O)(O)NP(=O)(O)O)[C@@H](O)[C@H]1O |  |  |  |  |  |  |  |  |  |  | 3.5 °C |  |  |  |  |
